What was measured:
[1] = molecular target: CYP143 (Mycobacterium tuberculosis, UniProt P9WPL3); conditions: fragment 1 mM, P450 4-6 µM; relative to DMSO (416 nm)
[2] = molecular target: CYP124 (Mycobacterium tuberculosis, UniProt P9WPP3); conditions: fragment 1 mM, P450 4-6 µM; relative to DMSO (419 nm)
[3] = molecular target: CYP121 (Mycobacterium tuberculosis, UniProt P9WPP7); conditions: fragment 1 mM, P450 4-6 µM; relative to DMSO (417 nm)
[4] = molecular target: CYP125 (Mycobacterium tuberculosis, UniProt P9WPP1); type: binding; conditions: fragment 1 mM, P450 4-6 µM; Soret shift relative to DMSO (393 nm)
[5] = molecular target: CYP126 (Mycobacterium tuberculosis, UniProt P9WPN9); conditions: fragment 1 mM, P450 4-6 µM; relative to DMSO (418 nm)
[6] = molecular target: CYP142 (Mycobacterium tuberculosis, UniProt P9WPL5); conditions: fragment 1 mM, P450 4-6 µM; relative to DMSO (418.5 nm)
[7] = molecular target: CYP144 (Mycobacterium tuberculosis, UniProt P9WPL1); conditions: fragment 1 mM, P450 4-6 µM; relative to DMSO (421 nm)
CYP144, sequence (P9WPL1 whole entry, the tested form may be a part): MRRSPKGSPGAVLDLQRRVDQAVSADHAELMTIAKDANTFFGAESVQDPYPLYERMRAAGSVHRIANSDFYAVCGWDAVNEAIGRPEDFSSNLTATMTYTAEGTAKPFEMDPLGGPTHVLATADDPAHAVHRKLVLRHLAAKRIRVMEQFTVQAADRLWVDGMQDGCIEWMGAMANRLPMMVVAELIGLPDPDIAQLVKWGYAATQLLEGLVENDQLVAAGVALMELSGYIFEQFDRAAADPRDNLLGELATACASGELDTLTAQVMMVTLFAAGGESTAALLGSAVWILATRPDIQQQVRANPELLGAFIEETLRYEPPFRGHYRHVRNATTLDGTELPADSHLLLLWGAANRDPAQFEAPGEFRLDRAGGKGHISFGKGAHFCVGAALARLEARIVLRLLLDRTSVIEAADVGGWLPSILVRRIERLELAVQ

CYP126, sequence (P9WPN9 whole entry, the tested form may be a part): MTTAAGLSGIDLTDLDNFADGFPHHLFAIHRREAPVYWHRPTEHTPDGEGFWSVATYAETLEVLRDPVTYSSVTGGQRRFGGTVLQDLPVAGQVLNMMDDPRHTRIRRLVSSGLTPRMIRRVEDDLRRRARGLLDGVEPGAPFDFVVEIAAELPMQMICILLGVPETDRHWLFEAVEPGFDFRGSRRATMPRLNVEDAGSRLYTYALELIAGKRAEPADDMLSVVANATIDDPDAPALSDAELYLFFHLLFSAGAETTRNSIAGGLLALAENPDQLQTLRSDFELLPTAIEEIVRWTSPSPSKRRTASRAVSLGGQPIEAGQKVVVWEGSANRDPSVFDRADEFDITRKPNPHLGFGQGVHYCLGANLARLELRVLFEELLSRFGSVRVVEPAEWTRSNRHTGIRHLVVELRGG
CYP125, sequence (P9WPP1 whole entry, the tested form may be a part): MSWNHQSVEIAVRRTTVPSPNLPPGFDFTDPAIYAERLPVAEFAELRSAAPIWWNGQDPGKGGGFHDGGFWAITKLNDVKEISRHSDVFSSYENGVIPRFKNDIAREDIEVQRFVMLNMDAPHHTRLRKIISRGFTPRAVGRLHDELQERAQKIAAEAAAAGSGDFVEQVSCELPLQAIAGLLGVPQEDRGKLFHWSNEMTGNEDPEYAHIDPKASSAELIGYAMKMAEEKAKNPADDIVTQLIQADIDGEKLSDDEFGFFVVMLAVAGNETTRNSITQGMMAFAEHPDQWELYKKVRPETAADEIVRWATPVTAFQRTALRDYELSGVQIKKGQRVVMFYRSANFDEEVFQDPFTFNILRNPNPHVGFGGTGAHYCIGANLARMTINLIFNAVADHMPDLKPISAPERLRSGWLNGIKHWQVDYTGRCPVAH
CYP143, sequence (P9WPL3 whole entry, the tested form may be a part): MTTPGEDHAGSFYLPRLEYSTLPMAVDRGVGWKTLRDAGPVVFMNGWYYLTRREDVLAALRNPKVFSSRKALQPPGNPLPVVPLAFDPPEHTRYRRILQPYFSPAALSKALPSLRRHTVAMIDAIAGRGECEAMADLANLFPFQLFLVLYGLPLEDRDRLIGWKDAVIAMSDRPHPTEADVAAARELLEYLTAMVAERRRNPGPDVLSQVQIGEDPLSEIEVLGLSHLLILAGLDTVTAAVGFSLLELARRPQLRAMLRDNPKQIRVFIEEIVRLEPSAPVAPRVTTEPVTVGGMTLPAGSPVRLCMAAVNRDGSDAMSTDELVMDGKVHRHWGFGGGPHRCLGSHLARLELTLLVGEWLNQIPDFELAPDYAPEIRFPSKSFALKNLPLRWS
CYP124, sequence (P9WPP3 whole entry, the tested form may be a part): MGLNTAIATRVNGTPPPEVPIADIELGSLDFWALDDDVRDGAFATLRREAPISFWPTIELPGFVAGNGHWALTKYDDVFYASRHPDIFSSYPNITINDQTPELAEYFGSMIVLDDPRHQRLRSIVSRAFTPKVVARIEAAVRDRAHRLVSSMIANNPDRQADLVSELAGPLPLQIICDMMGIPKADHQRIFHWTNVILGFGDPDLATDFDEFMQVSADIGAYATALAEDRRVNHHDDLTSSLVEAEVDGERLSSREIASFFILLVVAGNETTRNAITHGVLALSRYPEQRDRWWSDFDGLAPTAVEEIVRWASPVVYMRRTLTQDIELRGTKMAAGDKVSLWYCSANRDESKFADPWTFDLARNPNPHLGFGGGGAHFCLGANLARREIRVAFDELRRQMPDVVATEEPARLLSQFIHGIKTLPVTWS
CYP142, sequence (P9WPL5 whole entry, the tested form may be a part): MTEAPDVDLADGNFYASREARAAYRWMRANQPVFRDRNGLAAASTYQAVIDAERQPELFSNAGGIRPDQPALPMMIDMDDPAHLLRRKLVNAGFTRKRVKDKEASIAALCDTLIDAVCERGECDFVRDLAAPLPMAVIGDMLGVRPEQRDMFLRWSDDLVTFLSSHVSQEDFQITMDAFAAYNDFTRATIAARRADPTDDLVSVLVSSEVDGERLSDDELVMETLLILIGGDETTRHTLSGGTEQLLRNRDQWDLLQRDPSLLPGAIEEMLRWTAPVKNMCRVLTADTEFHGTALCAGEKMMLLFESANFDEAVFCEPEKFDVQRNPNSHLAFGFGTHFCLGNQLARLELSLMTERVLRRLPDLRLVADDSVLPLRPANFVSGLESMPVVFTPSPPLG
CYP121, sequence (P9WPP7 whole entry, the tested form may be a part): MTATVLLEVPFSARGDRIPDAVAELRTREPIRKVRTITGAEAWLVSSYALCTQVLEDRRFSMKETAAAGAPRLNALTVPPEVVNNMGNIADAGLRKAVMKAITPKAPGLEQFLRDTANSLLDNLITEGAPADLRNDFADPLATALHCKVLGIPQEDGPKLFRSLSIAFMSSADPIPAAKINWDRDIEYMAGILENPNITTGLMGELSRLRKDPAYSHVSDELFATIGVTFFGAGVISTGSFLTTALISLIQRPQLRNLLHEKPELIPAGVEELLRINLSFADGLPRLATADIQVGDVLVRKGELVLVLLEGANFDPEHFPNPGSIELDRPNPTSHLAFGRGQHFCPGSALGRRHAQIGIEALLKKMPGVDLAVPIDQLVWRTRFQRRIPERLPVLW

Compound | Δλmax (nm) CYP143, fragment screen [1] [nm] | Δλmax (nm) CYP124, fragment screen [2] [nm] | Δλmax (nm) CYP121, fragment screen [3] [nm] | Δλmax (nm) CYP125, fragment screen [4] [nm] | Δλmax (nm) CYP126, fragment screen [5] [nm] | Δλmax (nm) CYP142, fragment screen [6] [nm] | Δλmax (nm) CYP144, fragment screen [7] [nm]
Clc1nccc2ccccc12 [compound 56] | -0.5 | 0 | -2 | 0 | 0 | 0 | 0
NC1=NN(c2ccccc2)C(=O)C1 [compound 13] | 0 | -1 | 0 | 0 | 0 | 0 | 0
C#Cc1cccnc1 [compound 75] | 0 | 0 | 0 | 0 | 0 | 0 | 0
Cc1nn(-c2ccccc2)nc1C(=O)O [compound 18] | 0 | 0 | 0 | 0 | 0 | 0 | 0
O=C(O)c1cncc(F)c1 [compound 60] | 1 | 0 | 0 | 0 | 0 | 0 | 0
c1ccc(-c2ccn[nH]2)nc1 [compound 2] | 0 | 0 | 0 | 0 | 0 | 0 | 0
O=C(O)c1cccc(O)n1 [compound 30] | 1 | 0 | 0 | 0 | 0 | 0 | 0
OCc1ccc(-c2ccncc2)cc1 [compound 8] | 1 | 1 | 1 | 25 | 3 | 0 | 0
Brc1c[nH]cn1 [compound 77] | 0.5 | 0 | -1 | 0 | 0 | 3 | 0
Cc1ccc(S(N)(=O)=O)nc1 [compound 80] | 0 | 0 | 0 | 0 | 0 | 0 | 0
c1ccc(-c2cc[nH]n2)cc1 [compound 35] | 1 | -1 | 0 | -2 | 0 | 0 | 0
Cc1cc(O)nnc1O [compound 24] | 0 | 0 | -1 | 0 | 0 | 0 | 0
O=S(=O)(O)c1ccccn1 [compound 78] | 1 | 0 | 0 | 0 | 0 | 0 | 0
OCc1ccc(Cn2cncn2)cc1 [compound 69] | 0 | 0 | 0 | 0 | 0 | 0 | 0
Cc1n[nH]cc1Br [compound 38] | 0 | 0 | 0 | 0 | 0 | 1.5 | 0
OCc1nccn1Cc1ccccc1 [compound 10] | 1 | 1 | 0 | 0 | 0 | 3 | 0
Nc1ccc(-n2cccn2)cc1 [compound 49] | 1 | 0 | 0 | 0 | 2 | 0 | 0
N#Cc1ncccc1F [compound 72] | 0 | 0 | 0 | 0 | 0 | 0 | 0
Oc1cccnc1O [compound 42] | 0.5 | -1 | -1 | 0 | 0 | 0 | 0
Nc1cc(-c2ccc(Cl)cc2)n[nH]1 [compound 12] | 0 | -1 | 2 | -2 | 1 | 0 | 0
c1ccc(N2CCOCC2)nc1 [compound 63] | 1 | 0 | 0 | 0 | 0 | 0 | 0
Nc1ccncc1 [compound 47] | 0 | 0 | 0 | 0 | 0 | 1.5 | 0
